Experimental data as given in PubChem BioAssay AID1845199 (Molecular Pharmacology Branch, DTP, NCI, 2023).
“And” between values parts separate entries of the source, which are not always exact repeats. Equal values may be shown once.

Tested on: 556581-035-R-J1 tumor spheroid viability, % test/control
Assay: Anticancer human tumor 556581-035-R-J1 patient-derived ovarian carcinoma cell line growth inhibition
Conditions: spheroids with HUVEC and MSC; for viability, T/C: stronger effect = lower value
In short: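 Complex spheroids of malignant cells with endothelial cells and mesenchymal stem cells; agents alone or combined, from near clinical Cmax (or 10 microM if unknown) down in half-log steps, 0.25% DMSO final.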

[1] = curve of first compound, second compound 1 µM
[2] = curve of first compound, second compound 3.16 µM
[3] = curve of first compound, second compound 10 µM
[4] = curve of first compound, second compound 31.6 µM
[5] = curve of first compound, second compound 100 µM
[6] = second compound 1 µM, first compound 0.0316 µM
[7] = second compound 1 µM, first compound 0.1 µM
[8] = second compound 1 µM, first compound 0.316 µM
[9] = second compound 1 µM, first compound 1 µM
[10] = second compound 1 µM, first compound 3.16 µM
[11] = second compound 1 µM, first compound 10 µM
[12] = second compound 3.16 µM, first compound 0.0316 µM
[13] = second compound 3.16 µM, first compound 0.1 µM
[14] = second compound 3.16 µM, first compound 0.316 µM
[15] = second compound 3.16 µM, first compound 1 µM
[16] = second compound 3.16 µM, first compound 3.16 µM
[17] = second compound 3.16 µM, first compound 10 µM
[18] = second compound 10 µM, first compound 0.0316 µM
[19] = second compound 10 µM, first compound 0.1 µM
[20] = second compound 10 µM, first compound 0.316 µM
[21] = second compound 10 µM, first compound 1 µM
[22] = second compound 10 µM, first compound 3.16 µM
[23] = second compound 10 µM, first compound 10 µM
[24] = second compound 31.6 µM, first compound 0.0316 µM
[25] = second compound 31.6 µM, first compound 0.1 µM
[26] = second compound 31.6 µM, first compound 0.316 µM
[27] = second compound 31.6 µM, first compound 1 µM
[28] = second compound 31.6 µM, first compound 3.16 µM
[29] = second compound 31.6 µM, first compound 10 µM
[30] = second compound 100 µM, first compound 0.0316 µM
[31] = second compound 100 µM, first compound 0.1 µM
[32] = second compound 100 µM, first compound 0.316 µM
[33] = second compound 100 µM, first compound 1 µM
[34] = second compound 100 µM, first compound 3.16 µM
[35] = second compound 100 µM, first compound 10 µM
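Also: spheroids exposed to compounds for 7 days before viability read.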

With Cc1cc(C)c(CNC(=O)c2cc(-c3ccc(CN4CCOCC4)cc3)cc3c2cnn3C2CCCC2)c(=O)[nH]1 + Cn1nnc2c(C(N)=O)ncn2c1=O the IC50 [1] was over 10000 nM, the IC50 [2] was over 10000 nM and the IC50 [3] was over 10000 nM. The IC50 [4] was over 10000 nM, the IC50 [5] was over 10000 nM and the viability, T/C [6] was 105%. The viability, T/C [7] was 107%, the viability, T/C [8] was 110% and the viability, T/C [9] was 103%. The viability, T/C [10] was 110%, the viability, T/C [11] was 88% and the viability, T/C [12] was 107%. For the same compound, the viability, T/C [13] was 108%, the viability, T/C [14] was 112% and the viability, T/C [15] was 108%. It also gave a viability, T/C [16] of 108%, a viability, T/C [17] of 88.2% and a viability, T/C [18] of 118%. It also gave a viability, T/C [19] of 118%, a viability, T/C [20] of 111% and a viability, T/C [21] of 121%. For the same compound, the viability, T/C [22] was 114%, the viability, T/C [23] was 93.6% and the viability, T/C [24] was 115%. It also gave a viability, T/C [25] of 105%, a viability, T/C [26] of 116% and a viability, T/C [27] of 108%. For the same compound, the viability, T/C [28] was 110%, the viability, T/C [29] was 86.1% and the viability, T/C [30] was 113%. It also gave a viability, T/C [31] of 116%, a viability, T/C [32] of 107% and a viability, T/C [33] of 122%. It also gave a viability, T/C [34] of 109% and a viability, T/C [35] of 84.8%.

With COc1ccc([C@@H](O)c2cc(-c3ncnc4cc(N5CCOCC5)ccc34)c(F)cc2Cl)nn1 + Cn1nnc2c(C(N)=O)ncn2c1=O the IC50 [1] was 2650 nM, the IC50 [2] was 2550 nM and the IC50 [3] was 3060 nM. For the same compound, the IC50 [4] was 2810 nM, the IC50 [5] was 3030 nM and the viability, T/C [6] was 115%. For the same compound, the viability, T/C [7] was 111%, the viability, T/C [8] was 100% and the viability, T/C [9] was 70.2%. For the same compound, the viability, T/C [10] was 47.7%, the viability, T/C [11] was 34.2% and the viability, T/C [12] was 105%. For the same compound, the viability, T/C [13] was 114%, the viability, T/C [14] was 102% and the viability, T/C [15] was 71%. For the same compound, the viability, T/C [16] was 47.4%, the viability, T/C [17] was 36.2% and the viability, T/C [18] was 126%. It also gave a viability, T/C [19] of 121%, a viability, T/C [20] of 113% and a viability, T/C [21] of 76%. It also gave a viability, T/C [22] of 51.9%, a viability, T/C [23] of 38.2% and a viability, T/C [24] of 125%. The viability, T/C [25] was 123%, the viability, T/C [26] was 114% and the viability, T/C [27] was 76.9%. It also gave a viability, T/C [28] of 48.5%, a viability, T/C [29] of 36.2% and a viability, T/C [30] of 129%. It also gave a viability, T/C [31] of 122%, a viability, T/C [32] of 117% and a viability, T/C [33] of 76.8%. It also gave a viability, T/C [34] of 51.6% and a viability, T/C [35] of 39.3%.

For COc1ccc([C@@H](O)c2cc(-c3ncnc4cc(N5CCOCC5)ccc34)c(F)cc2Cl)nn1, the viability, T/C (compound 0.0316 µM) was 103% and 102% and 98.8%, the viability, T/C (compound 0.1 µM) was 104% and 111% and 99.6% and the viability, T/C (compound 0.316 µM) was 81.3% and 90.1% and 91%. For the same compound, the viability, T/C (compound 1 µM) was 61.1% and 70.3% and 64.7%, the viability, T/C (compound 3.16 µM) was 40.9% and 49.5% and 41.4% and the viability, T/C (compound 10 µM) was 31.9% and 35.1% and 31.1%. For the same compound, the IC50 (curve of compound) was 1810 nM and 2830 nM and 2020 nM.

Compound CC1COCCN1c1cc(-c2ccnn2C)c2ccnc(-c3ccn[nH]3)c2n1 (centres undefined) + Cn1nnc2c(C(N)=O)ncn2c1=O has an IC50 [1] of 565 nM, an IC50 [2] of 591 nM and an IC50 [3] of 679 nM. The IC50 [4] was 604 nM, the IC50 [5] was 392 nM and the viability, T/C [6] was 93.7%. It also gave a viability, T/C [7] of 69.3%, a viability, T/C [8] of 56.3% and a viability, T/C [9] of 43.7%. For the same compound, the viability, T/C [10] was 39.9%, the viability, T/C [11] was 33% and the viability, T/C [12] was 90.6%. The viability, T/C [13] was 72.5%, the viability, T/C [14] was 56.4% and the viability, T/C [15] was 44.2%. For the same compound, the viability, T/C [16] was 37.8%, the viability, T/C [17] was 32.5% and the viability, T/C [18] was 86.8%. For the same compound, the viability, T/C [19] was 71%, the viability, T/C [20] was 56% and the viability, T/C [21] was 45.9%. For the same compound, the viability, T/C [22] was 40%, the viability, T/C [23] was 31.2% and the viability, T/C [24] was 88.9%. The viability, T/C [25] was 71.6%, the viability, T/C [26] was 54.6% and the viability, T/C [27] was 45.8%. It also gave a viability, T/C [28] of 39.1%, a viability, T/C [29] of 33.4% and a viability, T/C [30] of 82.8%. It also gave a viability, T/C [31] of 63.8%, a viability, T/C [32] of 51.7% and a viability, T/C [33] of 42.8%. It also gave a viability, T/C [34] of 38.1% and a viability, T/C [35] of 32.8%.

For CC1COCCN1c1cc(-c2ccnn2C)c2ccnc(-c3ccn[nH]3)c2n1 (centres undefined) + CC[C@@]1(O)C(=O)OCc2c1cc1n(c2=O)Cc2cc3c(CN(C)C)c(O)ccc3nc2-1, the IC50 (curve of first compound, second compound 0.003 µM) was 317 nM, the IC50 (curve of first compound, second compound 0.00949 µM) was 141 nM and the IC50 (curve of first compound, second compound 0.03 µM) was under 31.6 nM. For the same compound, the IC50 (curve of first compound, second compound 0.0949 µM) was under 31.6 nM, the IC50 (curve of first compound, second compound 0.3 µM) was under 31.6 nM and the viability, T/C (second compound 0.003 µM, first compound 0.0316 µM) was 85.3%. For the same compound, the viability, T/C (second compound 0.003 µM, first compound 0.1 µM) was 66.5%, the viability, T/C (second compound 0.003 µM, first compound 0.316 µM) was 50.2% and the viability, T/C (second compound 0.003 µM, first compound 1 µM) was 39%. For the same compound, the viability, T/C (second compound 0.003 µM, first compound 3.16 µM) was 33.7%, the viability, T/C (second compound 0.003 µM, first compound 10 µM) was 30.8% and the viability, T/C (second compound 0.00949 µM, first compound 0.0316 µM) was 68.9%. For the same compound, the viability, T/C (second compound 0.00949 µM, first compound 0.1 µM) was 53.5%, the viability, T/C (second compound 0.00949 µM, first compound 0.316 µM) was 40.9% and the viability, T/C (second compound 0.00949 µM, first compound 1 µM) was 38.1%. The viability, T/C (second compound 0.00949 µM, first compound 3.16 µM) was 31.6%, the viability, T/C (second compound 0.00949 µM, first compound 10 µM) was 29.2% and the viability, T/C (second compound 0.03 µM, first compound 0.0316 µM) was 42%. It also gave a viability, T/C (second compound 0.03 µM, first compound 0.1 µM) of 35.3%, a viability, T/C (second compound 0.03 µM, first compound 0.316 µM) of 35.5% and a viability, T/C (second compound 0.03 µM, first compound 1 µM) of 35.1%. For the same compound, the viability, T/C (second compound 0.03 µM, first compound 3.16 µM) was 29.8%, the viability, T/C (second compound 0.03 µM, first compound 10 µM) was 28.4% and the viability, T/C (second compound 0.0949 µM, first compound 0.0316 µM) was 21.6%. It also gave a viability, T/C (second compound 0.0949 µM, first compound 0.1 µM) of 20%, a viability, T/C (second compound 0.0949 µM, first compound 0.316 µM) of 20.5% and a viability, T/C (second compound 0.0949 µM, first compound 1 µM) of 26.5%. It also gave a viability, T/C (second compound 0.0949 µM, first compound 3.16 µM) of 27.1%, a viability, T/C (second compound 0.0949 µM, first compound 10 µM) of 27% and a viability, T/C (second compound 0.3 µM, first compound 0.0316 µM) of 4.51%. The viability, T/C (second compound 0.3 µM, first compound 0.1 µM) was 5.08%, the viability, T/C (second compound 0.3 µM, first compound 0.316 µM) was 6.11% and the viability, T/C (second compound 0.3 µM, first compound 1 µM) was 10.5%. The viability, T/C (second compound 0.3 µM, first compound 3.16 µM) was 16.3% and the viability, T/C (second compound 0.3 µM, first compound 10 µM) was 15.6%.

[2H]c1nc(C)nc([2H])c1-c1cc(NC[C@@H](C)c2cccc3c(C(=O)NC)ccnc23)ncn1 was tested, and the viability, T/C (compound 0.0316 µM) was 112% and 111% and 102%, the viability, T/C (compound 0.1 µM) was 111% and 107% (2×) and the viability, T/C (compound 0.316 µM) was 108% and 109% and 110%. The viability, T/C (compound 1 µM) was 113% and 105% and 101%, the viability, T/C (compound 3.16 µM) was 116% and 106% and 105% and the viability, T/C (compound 10 µM) was 115% and 111% and 105%. It also gave an IC50 (curve of compound) of over 10000 nM.
